The source of these data is patent publication EP2357172B1, “Process for the preparation of pimozide” (Institut Univ. de Ciència i Tecnologia, S.A., priority 2006, dated 2008).

The subject of data set [1] is rats. The settings on record: cited from earlier work.
For data set [2] the following is noted: cited from earlier work.
Data set [3] has as its system rats. The experiment in a line: Oral lethal dose (LD50) in rats, from safety data sheets. The data set is classed as in vivo. The conditions noted are these: glycerol formal compared with MIBK. An excerpt:
The data for MIBK were obtained from the International Chemical Safety Card published by "Instituto Nacional de Seguridad e Higiene en el Trabajo" (National Institute for Occupational Safety and Hygiene). The data for glycerol formal were obtained from the most recent manufacturer's standard safety data sheet.

In the case of `CC(=O)CC(C)C` [MIBK, methylisobutylketone], in data set [1], the “LD50(oral-rats, g/kg)” value was 2.1 g/kg.

On to GLYCEROL FORMAL, for which the “LD50(oral-rats, g/kg)” value in data set [1] is given as 10 g/kg. In data set [2], the “Solubility in H2O (g/L)” value is reported as “Miscible in all proportions”. Also, the “lethal dose in rats (ingestion) relative to MIBK” value in data set [3] was “five times higher”.
